{"source": "paper PMC4466647", "about": "“Inhibition of non-small cell lung cancer (NSCLC) growth by a novel small molecular inhibitor of EGFR” (Oncotarget, 2015)", "biological_target": "EGFR (Homo sapiens, UniProt P00533)", "sequence (P00533 25-1210)": "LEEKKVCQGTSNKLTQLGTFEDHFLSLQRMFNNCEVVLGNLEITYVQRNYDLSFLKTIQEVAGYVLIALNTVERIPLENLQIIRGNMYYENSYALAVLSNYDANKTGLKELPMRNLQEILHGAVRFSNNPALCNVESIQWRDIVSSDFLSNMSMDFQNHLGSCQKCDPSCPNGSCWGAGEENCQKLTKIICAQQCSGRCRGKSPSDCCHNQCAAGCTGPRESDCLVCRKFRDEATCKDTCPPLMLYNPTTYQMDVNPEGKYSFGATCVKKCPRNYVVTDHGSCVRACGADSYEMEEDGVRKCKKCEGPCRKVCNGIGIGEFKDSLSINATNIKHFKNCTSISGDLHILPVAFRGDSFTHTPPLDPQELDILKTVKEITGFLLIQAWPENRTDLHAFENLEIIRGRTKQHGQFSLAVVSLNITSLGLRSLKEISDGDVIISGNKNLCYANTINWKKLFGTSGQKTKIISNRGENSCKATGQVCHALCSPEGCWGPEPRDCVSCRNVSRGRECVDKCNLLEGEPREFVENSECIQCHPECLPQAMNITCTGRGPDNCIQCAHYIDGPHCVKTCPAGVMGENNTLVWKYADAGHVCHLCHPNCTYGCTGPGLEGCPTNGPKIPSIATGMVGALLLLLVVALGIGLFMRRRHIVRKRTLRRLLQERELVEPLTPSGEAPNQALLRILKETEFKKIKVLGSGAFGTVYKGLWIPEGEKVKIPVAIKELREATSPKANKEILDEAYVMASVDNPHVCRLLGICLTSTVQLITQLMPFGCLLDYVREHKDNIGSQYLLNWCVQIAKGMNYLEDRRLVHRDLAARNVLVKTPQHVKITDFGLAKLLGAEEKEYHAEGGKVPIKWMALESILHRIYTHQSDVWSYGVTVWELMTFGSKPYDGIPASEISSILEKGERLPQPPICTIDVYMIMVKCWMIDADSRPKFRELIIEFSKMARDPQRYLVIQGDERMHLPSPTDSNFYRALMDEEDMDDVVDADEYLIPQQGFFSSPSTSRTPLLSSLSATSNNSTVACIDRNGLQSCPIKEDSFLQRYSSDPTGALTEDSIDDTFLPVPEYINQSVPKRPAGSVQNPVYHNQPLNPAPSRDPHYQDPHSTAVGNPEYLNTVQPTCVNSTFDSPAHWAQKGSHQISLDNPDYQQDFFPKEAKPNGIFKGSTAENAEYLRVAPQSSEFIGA", "test": "in vitro EGFR kinase assay (Promega Kinase-Glo luminescence, […] ATP)", "type": "biochemical"}
{"smiles": "O=C(Cc1ccccc1)N1CCc2c([nH]c3ccc(F)cc23)C1", "note": "[compound 308, WB-308]", "values": [{"measurement": "IC50", "result": "~43", "unit": "nM"}]}
